Source: patent US20250205192A1, “METHODS AND MATERIALS FOR TREATING PANCREATIC DISEASES AND DISORDERS” (MAYO FOUNDATION FOR MEDICAL EDUCATION AND RESEARCH, priority 2022, published 2025)
Entries after “also recorded” stand apart in the source; their conditions may differ.

Test system: male CD-1 mice
Experiment: Intraperitoneal GTL injection in mice, peritoneal cavity assessed for nodules, adhesions and fibrosis after 1 week
Assay type: in vivo
Protocol: 25% glyceryl trilinoleate (GTL) homogenous suspension in saline was prepared by heating, mixing, and sonication.
Agent 767 was dissolved in a 25% sonicated suspension of GTL in saline. This was prepared by adding […] of the 25% GTL suspension to 10 mg of 767 at room temperature. The solution was then mixed, heated gently to 37-40° C., and sonicated to ensure homogeneous emulsion.
Each experiment used 4 male CD-1 mice (35-39 grams).
Two mice were each given 0.2 mL of 25% GTL by intraperitoneal injection.
Two mice were given 0.2 mL of 767 in 25% GTL by intraperitoneal injection.
Mice were sacrificed after 1 week, and the peritoneal cavity was assessed for nodules.

| SMILES | nodules in the peritoneal cavity and in the vicinity of the pancreas (mice given 0.2 mL of 767 in 25% GTL by intraperitoneal injection, sacrificed after 1 week, compared with GTL only) | adhesions in the peritoneal cavity in spaces away from the pancreas (mice given 767 in 25% GTL intraperitoneally, 1 week) | adherence of duodenum, pancreas and spleen after GTL alone (en bloc excised organs from mice given GTL intraperitoneally) | peritoneal appearance (nodules and strands) after GTL alone (mice given 0.2 mL of 25% GTL by intraperitoneal injection, 1 week, compared with control mice) | pancreatitis abnormalities by blood urea nitrogen (BUN), glucose or albumin levels after GTL alone (mice given GTL intraperitoneally) | fibrosis of the wall of the nodules (Sirius red stain) after GTL alone (nodules from mice given GTL intraperitoneally) |
| --- | --- | --- | --- | --- | --- | --- |
| CCCCCCCCCCC[C@@H](C[C@@H]1OC(=O)[C@H]1CC)OC(=O)[C@H](C)NC=O [compound 767] | did not have noticeable nodules | prevented adhesions |  |  |  |  |
| CCCCC/C=C\C/C=C\CCCCCCCC(=O)OCC(COC(=O)CCCCCCC/C=C\C/C=C\CCCCC)OC(=O)CCCCCCC/C=C\C/C=C\CCCCC [GTL, glyceryl trilinoleate] |  |  | adherent and difficult to separate | had nodules and strands; also recorded: had clearly discernable nodules | did not exhibit pancreatitis abnormalities | strongly positive for fibrosis |
